In PubChem BioAssay (NCI) one finds GI50 and TGI data, which are given here for ten molecules.

The structures appear in SMILES notation.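 Following 48 hours of exposure in 96-well plates, responses at five concentrations were used to interpolate endpoints linearly. Here, GI50 denotes the concentration required for 50% inhibition of growth. TGI: concentration producing complete growth inhibition.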

Some test systems named below: A498 renal; HOP-62 NSCLC; SN12C renal; PC-3 prostate; OVCAR-3 ovarian; SK-MEL-2 melanoma; U251 CNS; SW-620 colon; MALME-3M melanoma; EKVX NSCLC.
What all share (assay): NCI-60 cell line screen, 48 h

Turning to `COC(=O)c1ccc2c(c1)c1c(C)c3ccncc3c(C)c1n2C`, the GI50 is 0.583 µM in the test on A498 renal; 0.106 µM in the test on HOP-62 NSCLC; 0.214 µM in the test on SN12C renal; 0.3 µM with PC-3 prostate; 0.536 µM with OVCAR-3 ovarian; 0.75 µM in the test with SK-MEL-2 melanoma. Besides, the GI50 was 0.322 µM in the test on U251 CNS, 0.0658 µM in the test on SW-620 colon, 0.201 µM in the test on MALME-3M melanoma and 0.274 µM in the test with EKVX NSCLC. Besides, the TGI with A498 renal was 13.7 µM; with HOP-62 NSCLC, above 100 µM; in the test with SN12C renal, above 100 µM; with PC-3 prostate, above 100 µM; in the test on OVCAR-3 ovarian, 47.2 µM; with SK-MEL-2 melanoma it was 31.6 µM. For the same molecule, the TGI in the test on U251 CNS is above 100 µM; in the test on SW-620 colon, 58.3 µM; with MALME-3M melanoma, 11.2 µM; in the test with EKVX NSCLC it was 36.2 µM.
Regarding `COc1cc(-c2ccc(NC(=O)NC3CC3)c(OC)c2)ccc1NC(=O)NC1CC1`, the GI50 is 19.2 µM in the test with A498 renal; 28.8 µM in the test with HOP-62 NSCLC; 18.8 µM with SN12C renal; 9.01 µM in the test on PC-3 prostate; 25.7 µM in the test with OVCAR-3 ovarian; 35.5 µM in the test with SK-MEL-2 melanoma. Further, the GI50 in the test on U251 CNS was 3.11 µM; with SW-620 colon it was 5.39 µM; in the test with MALME-3M melanoma, 4.99 µM; with EKVX NSCLC, above 100 µM. In addition, the TGI with A498 renal, in the test on HOP-62 NSCLC, in the test with SN12C renal, with PC-3 prostate, in the test on OVCAR-3 ovarian and in the test with SK-MEL-2 melanoma was above 100 µM each time. In addition, the TGI is above 69.3 µM in the test with U251 CNS, above 100 µM in the test with SW-620 colon, above 100 µM with MALME-3M melanoma and above 100 µM in the test on EKVX NSCLC.
On to `CC(O)CN1c2ccccc2Sc2ccc(Cl)cc21` (centres undefined), for which the TGI in the test with A498 renal, in the test on HOP-62 NSCLC, in the test with SN12C renal, in the test with PC-3 prostate, with OVCAR-3 ovarian and in the test on SK-MEL-2 melanoma was above 10 µM in each case. The TGI in the test on U251 CNS, in the test with SW-620 colon, in the test on MALME-3M melanoma and in the test with EKVX NSCLC was above 10 µM each time.
For the molecule `COC(=O)C(=O)C(C(=O)C(=O)Nc1ccc(C)cc1)c1nc2ccc(C(=O)c3ccccc3)cc2[nH]c1=O` (centres undefined), the TGI in the test on A498 renal, in the test with HOP-62 NSCLC, in the test on SN12C renal, in the test on PC-3 prostate, in the test on OVCAR-3 ovarian and in the test on SK-MEL-2 melanoma was above 100 µM each time. In addition, the TGI with U251 CNS, with SW-620 colon, in the test on MALME-3M melanoma and in the test on EKVX NSCLC was above 100 µM throughout.
With `O=c1c(-c2ccc(O)cc2)coc2cc(OC3OC(CO)C(O)C(O)C3O)cc(O)c12` (centres undefined), the TGI with A498 renal, with HOP-62 NSCLC, in the test with SN12C renal, in the test with PC-3 prostate, in the test on OVCAR-3 ovarian and in the test on SK-MEL-2 melanoma was above 100 µM in each case. Besides, the TGI was above 100 µM with U251 CNS, above 10 µM in the test with SW-620 colon, above 100 µM in the test with MALME-3M melanoma and above 100 µM in the test on EKVX NSCLC. Further, the GI50 in the test with HOP-62 NSCLC, with SK-MEL-2 melanoma, with U251 CNS and in the test on MALME-3M melanoma was above 100 µM each time.
Take `CN(O)C(=S)c1ccccc1`: the TGI was 68.2 µM in the test with A498 renal; above 90.8 µM with HOP-62 NSCLC; above 55.4 µM with SN12C renal; above 59.1 µM in the test with PC-3 prostate; 34.8 µM with OVCAR-3 ovarian; above 33.1 µM with SK-MEL-2 melanoma. Also, the TGI with U251 CNS was above 100 µM; in the test on SW-620 colon, 14.6 µM; in the test on MALME-3M melanoma, above 100 µM; in the test on EKVX NSCLC, above 95.2 µM.
In the case of `Cc1cn2c(/C=C3/C(=O)Nc4ccc(F)cc43)c(C)nc2s1`, the GI50 is 9.59 µM with A498 renal; 8.81 µM in the test with HOP-62 NSCLC; 8.56 µM in the test with SN12C renal; 9.51 µM in the test with PC-3 prostate; 3.5 µM with OVCAR-3 ovarian; 8.76 µM in the test with SK-MEL-2 melanoma. For the same molecule, the GI50 in the test on U251 CNS was 5.96 µM; in the test on SW-620 colon it was 3.18 µM; in the test with MALME-3M melanoma, 7.26 µM; in the test with EKVX NSCLC it was 17.3 µM. The TGI in the test with A498 renal was 25.8 µM; in the test on HOP-62 NSCLC it was above 50 µM; in the test on SN12C renal, 27.4 µM; in the test with PC-3 prostate it was above 50 µM; in the test with OVCAR-3 ovarian, above 50 µM; with SK-MEL-2 melanoma, above 50 µM. The TGI in the test with U251 CNS, with SW-620 colon, with MALME-3M melanoma and in the test on EKVX NSCLC was above 50 µM throughout.
Turning to `CCCCCCN(C)Cc1ccc(OCCOc2ccc(CN(C)CCCCCC)cc2)cc1`, the GI50 in the test with A498 renal is 1.24 µM; in the test on HOP-62 NSCLC, 1.48 µM; in the test on SN12C renal it was 1.35 µM; in the test on PC-3 prostate it was 1.24 µM; in the test on OVCAR-3 ovarian, 1.36 µM; in the test with SK-MEL-2 melanoma it was 1.61 µM. In addition, the GI50 with U251 CNS is 1.08 µM; in the test on SW-620 colon, 1.48 µM; in the test on MALME-3M melanoma, 1.13 µM; in the test on EKVX NSCLC, 2.47 µM. The TGI amounted to 3.17 µM in the test with A498 renal; 3.15 µM in the test with HOP-62 NSCLC; 3.08 µM in the test on SN12C renal; 2.8 µM in the test with PC-3 prostate; 2.91 µM with OVCAR-3 ovarian; 3.08 µM in the test with SK-MEL-2 melanoma. For the same molecule, the TGI stood at 2.37 µM with U251 CNS, 3.13 µM in the test with SW-620 colon, 2.87 µM in the test on MALME-3M melanoma and 15.1 µM in the test on EKVX NSCLC.
For `O=C(Nc1nc(-c2ccc(Cl)cc2)nc2c1sc(=S)n2-c1ccccc1)C(F)(F)F`, the GI50 in the test on A498 renal is 1.77 µM; in the test with HOP-62 NSCLC it was 2.83 µM; in the test on SN12C renal, 11.3 µM; with PC-3 prostate, 8.95 µM; in the test on OVCAR-3 ovarian, 2.81 µM; in the test on SK-MEL-2 melanoma, 5.8 µM. Further, the GI50 in the test with U251 CNS is 3.23 µM; in the test with SW-620 colon it was 4.34 µM; with MALME-3M melanoma, 2.89 µM; in the test with EKVX NSCLC, 3.83 µM. Also, the TGI with A498 renal turned out to be 7.8 µM; with HOP-62 NSCLC, 7.98 µM; with SN12C renal, 45.3 µM; in the test on PC-3 prostate, 71.4 µM; in the test on OVCAR-3 ovarian, 6.97 µM; in the test with SK-MEL-2 melanoma, 22.7 µM. Besides, the TGI in the test on U251 CNS was 9.87 µM; with SW-620 colon, 26.3 µM; with MALME-3M melanoma it was 7.08 µM; in the test on EKVX NSCLC, 31.8 µM.
Regarding `Nc1nc(N)c(N=Nc2ccc(C(=O)O)c(O)c2)c(N)n1`, the TGI in the test on A498 renal is above 100 µM; in the test with HOP-62 NSCLC it was above 100 µM; in the test on SN12C renal, above 100 µM; in the test with PC-3 prostate it was above 100 µM; with OVCAR-3 ovarian, 53.8 µM; in the test with SK-MEL-2 melanoma, above 100 µM. Besides, the TGI in the test with U251 CNS, in the test with SW-620 colon, with MALME-3M melanoma and in the test with EKVX NSCLC was above 100 µM each time.
